# Read-outs that look alike come from different tables or passages of the source.
# Tested on: Mycobacterium tuberculosis H37Rv
# Assay: Microtiter dilution MIC assay in GAST-Fe and 7H9-based media
# Type: cell-based
# Details: for MIC (Gast/Fe) Week 2: GAST-Fe medium pH 6.6, read after week 2; for MIC (Gast/Fe) Week 1: GAST-Fe medium pH 6.6, read after week 1; for MIC: Mycobacterium tuberculosis, H37RV
SMILES,MIC (Gast/Fe) Week 2,other results
"c1ccc(NCc2ccc(Oc3ccccn3)cc2)cc1 [Compound 2a, N-(4-(pyridin-2-yloxy)benzyl) aniline]",37 µM,–
"COc1cccc(NCc2ccc(Oc3ccccn3)cc2)c1 [Compound 2c, 3-methoxy-N-(4-(pyridin-2-yloxy)benzyl) aniline]",37 µM,–
"Cc1ccc(NCc2ccc(Oc3ccccn3)cc2)cc1 [Compound 2d, 4-methyl-N-(4-(pyridin-2-yloxy)benzyl) aniline]",–,MIC (Gast/Fe) Week 1: 22 µM
"Clc1ccc(NCc2ccc(Oc3ccccn3)cc2)cc1 [Compound 2g, 4-chloro-N-(4-(pyridin-2-yloxy)benzyl) aniline]",40 µM,–
"Clc1cccc(NCc2ccc(Oc3ccccn3)cc2)c1 [Compound 2h, 3-chloro-N-(4-(pyridin-2-yloxy)benzyl) aniline]",40 µM,–
"Clc1ccccc1NCc1ccc(Oc2ccccn2)cc1 [Compound 2i, 2-chloro-N-(4-(pyridin-2-yloxy)benzyl) aniline]",20 µM,MIC (Gast/Fe) Week 1: 20 µM
"Fc1ccc(NCc2ccc(Oc3ccccn3)cc2)cc1 [Compound 2j, 4-fluoro-N-(4-(pyridin-2-yloxy)benzyl) aniline]",25 µM,–
"Brc1cccc(NCc2ccc(Oc3ccccn3)cc2)c1 [Compound 2m, 3-bromo-N-(4-(pyridin-2-yloxy)benzyl) aniline]",35 µM,–
"Oc1cc(Cl)ccc1Oc1ccc(Cl)cc1Cl [Triclosan, 2,4,4׳- trichloro- 2׳- hydroxy diphenyl ether, reference compound]",–,"MIC (pH 6.6, read-out: MIC (Gast/Fe) Week 1): 43 µM; MIC (pH 6.6, read-out: MIC (Gast/Fe) Week 2): 43 µM; MIC (read-out: MIC (7H9/ADC/Tween) Week 1): 22 µM; MIC (read-out: MIC (7H9/ADC/Tween) Week 2): 43 µM"

# From PMC11382352 (Drug development research, 2019)
